Data published in paper PMC7933116 (Cell metabolism, 2020).

Target: MCT1 (Homo sapiens, UniProt P53985)
Assay: BCECF fluorescence lactate transport assay in MCT1-expressing BT20 cells
Type: cell-based

Chain of MCT1 (P53985 whole entry): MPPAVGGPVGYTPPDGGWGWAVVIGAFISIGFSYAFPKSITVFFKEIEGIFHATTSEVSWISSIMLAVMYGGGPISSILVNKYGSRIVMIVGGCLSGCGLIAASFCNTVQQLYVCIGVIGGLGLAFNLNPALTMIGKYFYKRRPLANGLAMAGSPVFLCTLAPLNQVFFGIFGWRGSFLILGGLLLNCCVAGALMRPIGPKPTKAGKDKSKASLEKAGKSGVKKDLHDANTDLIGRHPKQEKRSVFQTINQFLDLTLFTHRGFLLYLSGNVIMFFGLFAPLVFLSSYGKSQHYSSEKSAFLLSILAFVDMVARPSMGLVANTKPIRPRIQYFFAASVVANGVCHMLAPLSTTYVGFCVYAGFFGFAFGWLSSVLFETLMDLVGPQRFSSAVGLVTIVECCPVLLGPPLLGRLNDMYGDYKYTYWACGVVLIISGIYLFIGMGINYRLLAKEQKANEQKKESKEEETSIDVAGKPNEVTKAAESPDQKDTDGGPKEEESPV

## CC(C)(OCc1cc(-c2cccc(OC3CC3)c2)n(-c2ccccc2Cl)n1)C(=O)O [VB124, 2-[[1-(2-chlorophenyl)-5-(3-cyclopropoxyphenyl)-1H-pyrazol-3-yl]methoxy]-2-methylpropanoic acid]
  IC50: 24 µM
